One assay relates to S. aureus strain 1471. As to the kind of experiment: Drop assay against S. aureus strain 1471 with or without copper. Particulars: Staphylococcus aureus, 1471, read-out: MIC: +50 μM Cu.
The next assay relates to MRSA. As to the kind of experiment: In vitro activity against S. aureus (MRSA), MIC with or without Cu supplementation. Particulars: for MIC: Staphylococcus aureus, MRSA; for MIC* against MRSA: kinetic data (determined from bacteria growth experiments), resulting in IC50 values similar to MIC values.
Assay [1] in a line: Copper(I) binding constant of NNSN compounds (1H-NMR titration with CuBr in D4-methanol). The conditions noted are these: for Copper (I) binding constant: Table I; for Binding constant: Cu-NNSN 1:1 stoichiometry. As to the method: They were recorded in D4-methanol by means of adding aliquots of a 5 mmol CuBr stock solution in D4-methanol to the 1 mmol NNSN-compound, resulting in 0, 0.5, 1.0, 2.0 and 3.0 mmol CuBr concentration in D4-methanol.

Assay [2] relates to multi-drug resistant Gram-positive bacteria. Particulars: current antibiotics, background section; cited from earlier work.
In assay [3] the test system is Avirulent Mtb strain mc26206 (H37Rv ΔpanCD ΔleuCD, double auxotroph). Kind of assay: microbe, parasite or virus in culture. It counts as cell-based. The conditions noted are these: Mycobacterium tuberculosis.
Setting [4] is: read-out: MIC* against MRSA (μM), kinetic data (determined from bacteria growth experiments), resulting in IC50 values similar to MIC values.

pIC50: −log10 of the molar value. Values after ≈ are worked out from the molar mass of the structure shown. Like-named read-outs stand apart in the source and are kept apart here.

Procedure for MRSA: S. aureus was inoculated in Mueller-Hinton medium from frozen stocks and grown for 2-4 h (until reaching an OD600˜1) at 37° C. while shaking. Once the OD was reached, bacteria were harvested and diluted in Phenolred-free RPMI1640 medium to an OD of 0.01 (=inoculum). Test compounds where diluted from frozen DMSO-stocks were diluted in Phenolred-free RPMI1640 medium with or without Cu supplementation (100 μM) and serially diluted in 96-well plates in the same medium to achieve a final concentration of between 0.08 and 10 μM after addition of an equal volume of inoculum. Medium-only controls and growth controls in the absence of test compounds were also included. The plates were placed in sealed bags and incubated at 37° C. After 15-20 h incubation time, an OD600 reading was taken and analyzed. […] If kinetic data were required, resazurin was added to each well. Using a plate reader with incubation chamber, resazurin conversion was monitored by fluorescence reading every 20 min for up to 24 h. After normalizing the data to respective controls, the MIC was determined using the same definition as above.
Procedure for S. aureus strain 1471: For the drop assay, bacteria were grown in wells with or without copper, using a 1:2 drug titration starting at 10 μM.

In general, MIC refers to the lowest concentration found to suppress growth. For the compound `O=[N+]([O-])c1cnn(C(=S)Nc2cccc(Cl)c2)c1` [SB59, N-(3-chlorophenyl)-4-nitro-1H-pyrazole-1-carbothioamide], the MIC in the assay with S. aureus strain 1471 is 2.5 µM (≈ 0.707 µg/mL).

`Nc1ccn(C(=S)Nc2ccc(F)cc2)n1` [SB37, 3-amino-N-(4-fluorophenyl)-1H-pyrazole-1-carbothioamide]: the MIC in the assay on MRSA (setting [4]) came to 10 µM (≈ 2.36 µg/mL). Also, in assay [1], the “Copper (I) binding constant” value stood at 5540 M⁻¹.

`Cc1cccc(C)c1NC(=S)n1cccn1` [SB71, N-(2,6-dimethylphenyl)-1H-pyrazole-1-carbothioamide] came in with an MIC against MRSA (organism not named there) of 0.6 µM (≈ 0.139 µg/mL).

Turning to `S=C(Nc1cccc(Cl)c1)n1cccn1` [SB52, N-(3-chlorophenyl)-1H-pyrazole-1-carbothioamide], in the assay on MRSA (setting [4]), the MIC came out at 2.5 µM (≈ 0.594 µg/mL).

Turning to `CC(C)(C)n1ccc(NC(=O)Nc2ccc(Cl)cc2)n1` [SB10, 1-(1-(tert-butyl)-1H-pyrazol-3-yl)-3-(4-chlorophenyl)urea], in assay [1], the “Binding constant” value stood at 1786.13 M⁻¹.

Take `S=C(Nc1ccn(C(=S)Nc2ccccc2Cl)n1)Nc1ccccc1Cl` [SB53, N-(2-chlorophenyl)-3-(3-(2-chlorophenyl)thioureido)-1H-pyrazole-1-carbothioamide]: the MIC in the assay with MRSA (setting [4]) came to 0.3 µM (≈ 0.127 µg/mL).

Turning to `S=C(Nc1ccc(Cl)cc1)n1ccnn1` [SB18], the “Binding constant” value in assay [1] is below 1000 M⁻¹.

As to `Cc1ccc(NC(=S)n2ccc(N)n2)cc1` [SB32, 3-amino-N-(p-tolyl)-1H-pyrazole-1-carbothioamide], the MIC with MRSA (setting [4]) worked out at 2.5 µM (≈ 0.581 µg/mL). In addition, the “Copper (I) binding constant” value in assay [1] was 6140 M⁻¹.

Consider `COc1ccc(NC(=S)n2ccc(N)n2)cc1` [SB31, 3-amino-N-(4-methoxyphenyl)-1H-pyrazole-1-carbothioamide], for which the MIC in the assay on MRSA (setting [4]) came out at 10 µM (≈ 2.48 µg/mL). Besides, the “Copper (I) binding constant” value in assay [1] was found to be 5452 M⁻¹.

Consider `O=[N+]([O-])c1cnn(C(=S)Nc2ccc(Cl)cc2)c1` [SB30, N-(4-chlorophenyl)-4-nitro-1H-pyrazole-1-carbothioamide], for which the “Binding constant” value in assay [1] was found to be 1100 M⁻¹.

With Teicoplanin, the “minimum inhibitory concentrations (MICs)” value in assay [2] was 0.8 to 1.0 µM.

`Fc1ccc(NC(=S)n2cccn2)cc1` [SB23, N-(4-fluorophenyl)-1H-pyrazole-1-carbothioamide] yielded an MIC in the assay on MRSA (organism not named there) above 10 µM. In assay [1], the “Binding constant” value came out at 22057 M⁻¹.

As to `CCOC(=O)c1ccn(C(=S)Nc2ccc(Cl)cc2)n1` [SB77], in the assay with MRSA (setting [4]), the MIC is 0.6 µM (≈ 0.186 µg/mL). For the same compound, the “Copper (I) binding constant” value in assay [1] is 1580.08 M⁻¹.

`O=[N+]([O-])c1cnn(C(=S)Nc2ccccc2Cl)c1` [SB56, N-(2-chlorophenyl)-4-nitro-1H-pyrazole-1-carbothioamide]: the MIC in the assay on S. aureus strain 1471 is 5 µM (≈ 1.41 µg/mL).

For `Cc1ccn(C(=S)Nc2c(C)cccc2C)n1` [SB72, N-(2,6-dimethylphenyl)-3-methyl-1H-pyrazole-1-carbothioamide], the lowest concentration to inhibit growth against MRSA (organism not named there) (MIC) was 0.6 µM (≈ 0.147 µg/mL).

In the case of `S=C(Nc1ccc(Br)cc1)n1cccn1` [SB26, N-(4-bromophenyl)-1H-pyrazole-1-carbothioamide], in the assay with MRSA (setting [4]), the MIC turned out to be 10 µM (≈ 2.82 µg/mL). The “Copper (I) binding constant” value in assay [1] came to 1550 M⁻¹.

With `Cc1nn(C(=S)Nc2ccc(Cl)cc2)cc1[N+](=O)[O-]` [SB47, N-(4-chlorophenyl)-3-methyl-4-nitro-1H-pyrazole-1-carbothioamide], the MIC with MRSA (setting [4]) was 2.5 µM (≈ 0.742 µg/mL).

For the compound `Cc1ccn(C(=S)Nc2ccccc2Cl)n1` [SB60, N-(2-chlorophenyl)-3-methyl-1H-pyrazole-1-carbothioamide], the MIC in the assay on S. aureus strain 1471 was determined as 1.25 µM (≈ 0.315 µg/mL).

Take `O=[N+]([O-])c1ccc(NC(=S)Nc2cc[nH]n2)cc1` [SB28, 1-(4-nitrophenyl)-3-(1H-pyrazol-3-yl)thiourea]: the MIC in the assay with MRSA (read-out: MIC (MRSA), MRSA) worked out at 5 µM (≈ 1.32 µg/mL). Moreover, the “Binding constant” value in assay [1] is 1200 M⁻¹.

The term pIC50 denotes −log10 of the IC50, conventionally taken in molar units. Turning to `Nc1ccn(C(=S)Nc2ccc(N=C=S)cc2)n1` [SB79, 3-amino-N-(4-isothiocyanatophenyl)-1H-pyrazole-1-carbothioamide], the pIC50 in assay [3] (read-out: IC50 +Cu) and in assay [3] (read-out: IC50 −Cu) was below 4.00 each time. Further, the MIC90 in assay [3] (read-out: MIC90 +Cu) and in assay [3] (read-out: MIC90 −Cu) was above 100 µM each time.

As for `S=C(Nc1ccccc1Cl)n1cccn1` [SB46, N-(2-chlorophenyl)-1H-pyrazole-1-carbothioamide], the pIC50 in assay [3] (read-out: IC50 +Cu) was 5.00; in assay [3] (read-out: IC50 −Cu) it was below 4.00. In addition, the MIC90 in assay [3] (read-out: MIC90 +Cu) and in assay [3] (read-out: MIC90 −Cu) was above 100 µM each time. Further, the MIC with MRSA (setting [4]) was 0.3 µM (≈ 0.0713 µg/mL).

For the compound `CN(C(=S)Nc1ccccc1Cl)c1ccn(C(=S)Nc2ccccc2Cl)n1` [SB55, N-(2-chlorophenyl)-3-(3-(2-chlorophenyl)-1-methylthioureido)-1H-pyrazole-1-carbothioamide], the MIC in the assay with S. aureus strain 1471 came to 10 µM (≈ 4.36 µg/mL).

For `S=C(Nc1ccccc1Cl)n1ccc(OCc2ccccc2)n1` [SB64, 3-(benzyloxy)-N-(2-chlorophenyl)-1H-pyrazole-1-carbothioamide], the negative logarithm of the IC50 (pIC50) in assay [3] (read-out: IC50 +Cu) is 6.10; in assay [3] (read-out: IC50 −Cu), below 4.00. Further, the figures for the MIC90 in assay [3] (read-out: MIC90 +Cu) and in assay [3] (read-out: MIC90 −Cu) were 1.6 µM (≈ 0.55 µg/mL) and above 100 µM, respectively.

On to `FC(F)(F)c1ccn(C(=S)Nc2ccc(Cl)cc2)n1` [SB20], for which, in assay [1], the “Binding constant” value was below 1000 M⁻¹.

Regarding `Nc1cnn(C(=S)NCc2ccccc2Cl)c1` [SB62, 4-amino-N-(2-chlorobenzyl)-1H-pyrazole-1-carbothioamide], in the assay on S. aureus strain 1471, the MIC stood at 5 µM (≈ 1.33 µg/mL).

On to `COC(=O)c1ccn(C(=S)Nc2ccccc2Cl)n1` [SB73], for which the MIC with MRSA (setting [4]) came out at 5 µM (≈ 1.48 µg/mL). Moreover, the “Copper (I) binding constant” value in assay [1] is 985.27 M⁻¹.

Regarding `Nc1ccn(C(=S)Nc2ccccc2Cl)n1` [SB49, 3-amino-N-(2-chlorophenyl)-1H-pyrazole-1-carbothioamide], the MIC with MRSA (setting [4]) is 0.6 µM (≈ 0.152 µg/mL).

For the compound `COC(=O)c1ccn(C(=S)Nc2cccc(Cl)c2)n1` [SB74, Methyl 1-((3-chlorophenyl)carbamothioyl)-1H-pyrazole-3-carboxylate], the MIC with MRSA (setting [4]) is 2.5 µM (≈ 0.739 µg/mL). Besides, in assay [1], the “Copper (I) binding constant” value was 1127.86 M⁻¹.

With `Cn1ccc(NC(=S)Nc2ccc(Cl)cc2)n1` [SB29], the “Binding constant” value in assay [1] amounted to 1150 M⁻¹.

On to `CN[C@H](CC(C)C)C(=O)N[C@H]1C(=O)N[C@@H](CC(N)=O)C(=O)N[C@H]2C(=O)N[C@H]3C(=O)N[C@H](C(=O)N[C@H](C(=O)O)c4cc(O)cc(O)c4-c4cc3ccc4O)[C@H](O)c3ccc(c(Cl)c3)Oc3cc2cc(c3O[C@@H]2O[C@H](CO)[C@@H](O)[C@H](O)[C@H]2O[C@H]2C[C@](C)(N)[C@H](O)[C@H](C)O2)Oc2ccc(cc2Cl)[C@H]1O` [Vancomycin], for which the “minimum inhibitory concentrations (MICs)” value in assay [2] is 2.2 µM (≈ 3.19 µg/mL).

On to `Nc1ccn(C(=S)Nc2ccc(Br)cc2)n1` [SB33, 3-amino-N-(4-bromophenyl)-1H-pyrazole-1-carbothioamide], for which the MIC in the assay with MRSA (setting [4]) worked out at 1.25 µM (≈ 0.371 µg/mL). The “Copper (I) binding constant” value in assay [1] is 5830 M⁻¹.

As to `Cc1ccc(NC(=S)n2cccn2)cc1` [SB25, N-(p-tolyl)-1H-pyrazole-1-carbothioamide], the MIC in the assay on MRSA (setting [4]) came out at 5 µM (≈ 1.09 µg/mL). Moreover, in assay [1], the “Copper (I) binding constant” value amounted to 1635 M⁻¹.

In the case of `Nc1cnn(C(=S)Nc2ccc(Cl)cc2)c1` [SB39], in assay [1], the “Binding constant” value amounted to 2200 M⁻¹.

Take Daptinomycin: in assay [2], the “minimum inhibitory concentrations (MICs)” value is 0.6 µM.

For the compound `CN(C(=S)Nc1ccc(Cl)cc1)c1ccn(C(=S)Nc2ccc(Cl)cc2)n1` [SB45, N-(4-chlorophenyl)-3-(3-(4-chlorophenyl)-1-methylthioureido)-1H-pyrazole-1-carbothioamide], the negative logarithm of the IC50 (pIC50) in assay [3] (read-out: IC50 +Cu) was 5.70; in assay [3] (read-out: IC50 −Cu), below 4.30. The MIC90 in assay [3] (read-out: MIC90 +Cu) was 3.5 µM (≈ 1.53 µg/mL); in assay [3] (read-out: MIC90 −Cu), above 100 µM. In the assay with MRSA (setting [4]), the MIC was below 0.016 µM.

In the assay on MRSA (organism not named there), `S=C(Nc1ccc(Cl)cc1)n1cc(Br)cn1` [SB68, 4-bromo-N-(4-chlorophenyl)-1H-pyrazole-1-carbothioamide] returned an MIC of 10 µM (≈ 3.17 µg/mL).

Regarding `Cn1ccc(NC(=O)Nc2ccc(Cl)cc2)n1` [SB11, 1-(4-chlorophenyl)-3-(1-methyl-1H-pyrazol-3-yl)urea], the “Binding constant” value in assay [1] is below 100 M⁻¹.

Take `Nc1ccn(C(=S)Nc2cccc(Cl)c2)n1` [SB50, 3-amino-N-(3-chlorophenyl)-1H-pyrazole-1-carbothioamide]: in the assay with MRSA (setting [4]), the minimal inhibitory concentration (MIC) was found to be 0.15 µM (≈ 0.0379 µg/mL).

As to `S=C(Nc1cccc(Cl)c1)Nc1ccn(C(=S)Nc2cccc(Cl)c2)n1` [SB57, N-(3-chlorophenyl)-3-(3-(3-chlorophenyl)thioureido)-1H-pyrazole-1-carbothioamide], the minimal inhibitory concentration (MIC) in the assay with S. aureus strain 1471 amounted to 0.6 µM (≈ 0.253 µg/mL).

For the compound `O=[N+]([O-])c1ccc(NC(=S)n2cccn2)cc1` [SB21, N-(4-nitrophenyl)-1H-pyrazole-1-carbothioamide], in the assay with MRSA (organism not named there), the MIC is 10 µM (≈ 2.48 µg/mL). In addition, in assay [1], the “Binding constant” value worked out at 26063 M⁻¹.

In the case of `S=C(Nc1ccc(Cl)cc1)n1cccn1` [listing 1 of 2 here], the “MIC* against MRSA” value against MRSA is 1.25 µM (≈ 0.297 µg/mL). Moreover, in assay [1], the “Copper (I) binding constant” value amounted to 1434 M⁻¹.

As to `O=[N+]([O-])c1ccc(COc2ccn(C(=S)Nc3ccc(Cl)cc3)n2)cc1` [SB63, N-(4-chlorophenyl)-3-((4-nitrobenzyl)oxy)-1H-pyrazole-1-carbothioamide], the MIC against MRSA (organism not named there) was above 10 µM.

For the compound `S=C(Nc1ccc(Cl)cc1)n1cccn1` [listing 2 of 2 here], 5 µM (≈ 1.19 µg/mL) was the least that counted as inhibitory in the assay on MRSA (organism not named there) (MIC). In addition, in the assay with MRSA, the “MIC* against MRSA” value came out at 5.0 µM (≈ 1.19 µg/mL). In assay [1], the “Binding constant” value stood at 2100 M⁻¹ and the “Copper (I) binding constant” value is 2100 M⁻¹.

For `CN(C)c1ccn(C(=S)Nc2ccc(Cl)cc2)n1` [SB40, N-(4-chlorophenyl)-3-(dimethylamino)-1H-pyrazole-1-carbothioamide], the minimum inhibitory concentration (MIC) in the assay with MRSA (setting [4]) worked out at 0.6 µM (≈ 0.168 µg/mL). In addition, the “Copper (I) binding constant” value in assay [1] was found to be 58500 M⁻¹.

Consider `O=[N+]([O-])c1cnn(C(=S)Nc2ccc(Cl)cc2)c1` [SB38], for which the “Binding constant” value in assay [1] is below 100 M⁻¹.
